Values joined by “and” are separate entries in the source; they are usually repeats but may differ in a detail not shown here. Equal values may be shown once. Records with an inconclusive call do not appear.
Tested on: BDF1 mice, colon carcinoma 38 sc, T/C %
Assay: NCI In Vivo Anticancer Drug Screen. Data for tumor model Colon Carcinoma 38 (subcutaneous) in B6D2F1 (BDF1) mice
Outline: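 Ratio of survival or tumor size, compound-treated animals relative to vehicle controls, in tumor-bearing mice.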

[1] = endpoint: median tumor weight (est.), dose: 50.0 mg/kg/injection, schedule: Q07DX002 (ip), vehicle: saline with Tween-80, higher = larger tumour
[2] = endpoint: median tumor weight (est.), dose: 100.0 mg/kg/injection, schedule: Q07DX002 (ip), vehicle: saline with Tween-80, higher = larger tumour
[3] = endpoint: median tumor weight (est.), dose: 3.12 mg/kg/injection, schedule: Q07DX002 (ip), vehicle: saline, higher = larger tumour
[4] = endpoint: median tumor weight (est.), dose: 6.25 mg/kg/injection, schedule: Q07DX002 (ip), vehicle: saline, higher = larger tumour
[5] = endpoint: median tumor weight (est.), dose: 12.5 mg/kg/injection, schedule: Q07DX002 (ip), vehicle: saline, higher = larger tumour
[6] = endpoint: median tumor weight (est.), dose: 25.0 mg/kg/injection, schedule: Q07DX002 (ip), vehicle: saline, higher = larger tumour
[7] = endpoint: median tumor weight (est.), dose: 100.0 mg/kg/injection, schedule: Q07DX002 (ip), vehicle: saline, higher = larger tumour
[8] = endpoint: median tumor weight (est.), dose: 50.0 mg/kg/injection, schedule: Q07DX002 (ip), vehicle: saline, higher = larger tumour

SMILES: CCS/C(SC)=C(/c1ccccc1)[P+](c1ccccc1)(c1ccccc1)c1ccccc1
- T/C (endpoint: median tumor weight (est.), dose: 1.5 mg/kg/injection, schedule: Q07DX002 (ip), vehicle: Klucel (hydroxypropylcellulose) (HPC), higher = larger tumour): 87 % of control
- T/C (endpoint: median tumor weight (est.), dose: 3.0 mg/kg/injection, schedule: Q07DX002 (ip), vehicle: Klucel (hydroxypropylcellulose) (HPC), higher = larger tumour): 116 % of control

SMILES: COc1cc([C@@H]2c3cc4c(cc3[C@@H](OC3OC5COC(C)OC5C(O)C3O)[C@H]3COC(=O)[C@H]23)OCO4)cc(OC)c1O (some centres not stated)
- T/C (endpoint: median tumor weight (est.), dose: 16.0 mg/kg/injection, schedule: Q07DX003 (ip), vehicle: clinical formulation, higher = larger tumour): 68 % of control
- T/C (endpoint: median tumor weight (est.), dose: 32.0 mg/kg/injection, schedule: Q07DX003 (ip), vehicle: clinical formulation, higher = larger tumour): 83 % of control
- T/C (endpoint: median tumor weight (est.), dose: 64.0 mg/kg/injection, schedule: Q07DX003 (ip), vehicle: clinical formulation, higher = larger tumour): 27 % of control

SMILES: Nc1nc2c(ncn2C2OC(CO)C(O)C2N)c(=O)[nH]1 (configuration not stated)
- T/C [1]: 73 % of control
- T/C [2]: 74 % of control

SMILES: CC(=O)[C@]1(O)Cc2c(O)c3c(c(O)c2[C@@H](OC2CC(N)C(O)C(C)O2)C1)C(=O)c1c(O)cccc1C3=O (some centres not stated)
- T/C (endpoint: median survival time, dose: 0.7 mg/kg/injection, schedule: Q07DX003 (iv), vehicle: water, higher = longer survival): 87 % of control
- T/C (endpoint: median survival time, dose: 1.7 mg/kg/injection, schedule: Q07DX003 (iv), vehicle: water, higher = longer survival): 107 % of control
- T/C (endpoint: median survival time, dose: 2.7 mg/kg/injection, schedule: Q07DX003 (iv), vehicle: water, higher = longer survival): 176 % of control

SMILES: CC1=CC2OC3C(OC(=O)CCCCl)C(OC(=O)CCCCl)C(C)(C2(CO)CC1)C31CO1 (configuration not stated)
- T/C (endpoint: median tumor weight (est.), dose: 2.0 mg/kg/injection, schedule: Q07DX003 (ip), vehicle: saline with Tween-80, higher = larger tumour): 103 % of control
- T/C (endpoint: median tumor weight (est.), dose: 8.0 mg/kg/injection, schedule: Q07DX003 (ip), vehicle: saline with Tween-80, higher = larger tumour): 76 % of control
- T/C (endpoint: median tumor weight (est.), dose: 16.0 mg/kg/injection, schedule: Q07DX003 (ip), vehicle: saline with Tween-80, higher = larger tumour): 83 % of control

SMILES: CC[n+]1ccc(Nc2ccc(NC(=O)c3ccc(C(=O)Nc4ccc(Nc5cc[n+](CC)c(N)n5)cc4)cc3)cc2)nc1N
- T/C (endpoint: median tumor weight (est.), dose: 6.25 mg/kg/injection, schedule: Q07DX003 (ip), vehicle: saline, higher = larger tumour): 89 % of control
- T/C (endpoint: median tumor weight (est.), dose: 6.25 mg/kg/injection, schedule: Q07DX003 (ip), vehicle: suspension in saline, higher = larger tumour): 70 % of control
- T/C (endpoint: median tumor weight (est.), dose: 12.5 mg/kg/injection, schedule: Q07DX003 (ip), vehicle: saline, higher = larger tumour): 55 % of control
- T/C (endpoint: median tumor weight (est.), dose: 25.0 mg/kg/injection, schedule: Q07DX003 (ip), vehicle: saline, higher = larger tumour): 67 % of control
- T/C (endpoint: median tumor weight (est.), dose: 25.0 mg/kg/injection, schedule: Q07DX003 (ip), vehicle: suspension in saline, higher = larger tumour): 123 % of control
- T/C (endpoint: median tumor weight (est.), dose: 50.0 mg/kg/injection, schedule: Q07DX003 (ip), vehicle: saline, higher = larger tumour): 67 % of control
- T/C (endpoint: median tumor weight (est.), dose: 50.0 mg/kg/injection, schedule: Q07DX003 (ip), vehicle: suspension in saline, higher = larger tumour): 54 % of control
- T/C (endpoint: median tumor weight (est.), dose: 100.0 mg/kg/injection, schedule: Q07DX003 (ip), vehicle: saline, higher = larger tumour): 56 % of control
- T/C (endpoint: median tumor weight (est.), dose: 100.0 mg/kg/injection, schedule: Q07DX003 (ip), vehicle: suspension in saline, higher = larger tumour): 36 % of control

SMILES: CCc1nc(N)nc(N)c1-c1ccc(Cl)c([N+](=O)[O-])c1
- T/C (endpoint: median tumor weight (est.), dose: 3.12 mg/kg/injection, schedule: Q07DX002 (ip), vehicle: saline with Tween-80, higher = larger tumour): 70 % of control
- T/C (endpoint: median tumor weight (est.), dose: 6.25 mg/kg/injection, schedule: Q07DX002 (ip), vehicle: saline with Tween-80, higher = larger tumour): 65 % of control and 77 % of control
- T/C (endpoint: median tumor weight (est.), dose: 12.5 mg/kg/injection, schedule: Q07DX002 (ip), vehicle: saline with Tween-80, higher = larger tumour): 97 % of control and 103 % of control
- T/C [1]: 45 % of control and 62 % of control
- T/C [2]: 52 % of control

SMILES: NC(=O)c1ccc[n+](Cc2c(Cl)cccc2Cl)c1
- T/C [3]: 83 % of control and 94 % of control
- T/C [4]: 68 % of control
- T/C [5]: 97 % of control
- T/C [6]: 116 % of control and 94 % of control
- T/C [7]: 85 % of control and 90 % of control

SMILES: CN(C)CCC(=O)C(=Cc1ccc(O)cc1)C(=O)CCN(C)C
- T/C [6]: 97 % of control
- T/C [8]: 112 % of control
- T/C [7]: 77 % of control

SMILES: Cc1ccc(NCCN(C)C)c2c(=O)c3cc(O)ccc3sc12
- T/C (endpoint: median tumor weight (est.), dose: 100.0 mg/kg/injection, schedule: Q07DX002 (ip), vehicle: Klucel (hydroxypropylcellulose) (HPC), higher = larger tumour): 42 % of control and 48 % of control
- T/C (endpoint: median tumor weight (est.), dose: 200.0 mg/kg/injection, schedule: Q07DX002 (ip), vehicle: Klucel (hydroxypropylcellulose) (HPC), higher = larger tumour): 17 % of control

SMILES: CCNC(=O)OCc1c(COC(=O)NCC)c(-c2ccc(Cl)c(Cl)c2)n2c1CCC2
- T/C [3]: 74 % of control
- T/C [4]: 104 % of control
- T/C [5]: 86 % of control
- T/C [6]: 62 % of control
- T/C [8]: 42 % of control
